# Laboratory results taken from patent US20110166220A1, “DRONEDARONE FOR THE PREVENTION OF PERMANENT ATRIAL FIBRILLATION” (SANOFI-AVENTIS, priority 2008, published 2011).
# Counter-ions that a name gives are not always drawn.
# Tests used:
# [1] = Prospective, multinational, double-blind, randomized, placebo-controlled, parallel group trial: prevention of permanent atrial fibrillation/flutter; format: in vivo; details: of 2301 patients treated; 400 mg of base twice daily with meals, 12 to 30 months; placebo 294; Fischer's exact test p<0.001
# Description: The invention is illustrated with the data below. Efficacy of dronedarone and its pharmaceutically acceptable salts versus placebo for the prevention of permanent atrial fibrillation was provided via dronedarone hydrochloride during a prospective, multinational, double-blind, randomized, multi-center, placebo-controlled, parallel group trial.
# Patients must have a history of atrial fibrillation or atrial flutter and/or may be in normal sinus rhythm or in atrial fibrillation or flutter at the time of recruitment. Recruitment of patients was conducted taking into account the following inclusion criteria:
# 1) One of the following risk factors had to be present: • age equal to or greater than 70 years, • hypertension (taking antihypertensives of at least two different classes), • diabetes, • history of cerebral stroke (transient ischemic event or completed cerebral stroke) or of systemic embolism, • left atrial diameter greater than or equal to 50 mm measured by echocardiography, • left ventricular ejection fraction less than 40%, measured by two-dimensional echography; […]
# [2] = Same trial: prevention of cardiovascular hospitalization or death in patients with permanent atrial fibrillation; format: in vivo
# Procedure: The invention is illustrated with the data below. Efficacy of dronedarone and its pharmaceutically acceptable salts versus placebo for the prevention of permanent atrial fibrillation was provided via dronedarone hydrochloride during a prospective, multinational, double-blind, randomized, multi-center, placebo-controlled, parallel group trial. Study drug treatment units (placebo or dronedarone hydrochloride corresponding to 400 mg of base) were such that each patient took one tablet in the morning during or shortly after breakfast and one tablet in the evening during or shortly after dinner. The treatment duration depended on the time of recruitment of each patient in the trial and could be comprised from 12 months to 30 months. From the 4628 patients included in the trial, 2301 were part of the group treated with dronedarone hydrochloride. “Patients with permanent atrial fibrillation or flutter” means patients with a history of atrial fibrillation or atrial flutter, who were in atrial fibrillation or flutter at the time of recruitment but who had not a previous history of permanent atrial fibrillation or flutter and who stayed in permanent atrial fibrillation or flutter during all the trial. The results obtained during this trial were analyzed by the Kaplan Meier method for the figures and the relative risk (RR) was estimated using Cox's proportional effect regression model. The relative risk (RR) is the ratio of the rates of occurrence of a hospitalization or death in patients receiving dronedarone compared with patients receiving a placebo. The percentage reduction x of a given event (hospitalization, death, cardiovascular death and the like) is calculated in the following manner: x=1−relative risk. Of the 4628 patients included in the study, 2301 formed part of the group treated with dronedarone hydrochloride. […] 74 events were recorded in the placebo group against 29 in the group treated with dronedarone hydrochloride. The calculated relative risk is 0.67 with p=0.06, that is a 33% reduction in cardiovascular hospitalizations and deaths under dronedarone hydrochloride.
smiles,measurement,setting,value
"CCCCc1oc2ccc(NS(C)(=O)=O)cc2c1C(=O)c1ccc(OCCCN(CCCC)CCCC)cc1 [dronedarone hydrochloride, 2-n-butyl-3-[4-(3-di-n-butylaminopropoxy)benzoyl]-5-methylsulfonamido-benzofuran]",number of patients with permanent atrial fibrillation/flutter,[1],178 patients
same,events (cardiovascular hospitalization or death) recorded in patients in permanent atrial fibrillation,"[2]; 178 patients in permanent AF in treated group, placebo 74 events of 294 patients",29 events
same,relative risk (RR) of cardiovascular hospitalization or death versus placebo,"[2]; patients in permanent atrial fibrillation, Cox's proportional effect regression model, p=0.06",0.67
same,reduction in cardiovascular hospitalizations and deaths (x=1-relative risk),"[2]; patients in permanent atrial fibrillation, versus placebo, p=0.06",33%
